In patent US20230074545A1, “TREATMENT OF CANCER WITH CDK12/13 INHIBITORS” (Kinnate Biopharma Inc., priority 2019, published 2023):

Legend:
Assay in all cases: Radiometric kinase panel
Format in all cases: biochemical
[1] = target: T1, AKT1 (Homo sapiens, UniProt P31749)
T1 construct: either as full-length or enzymatically active fragments; purchased ProQinase GmbH (Reaction Biology)
How it was run: (§1)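 Activity was measured radiometrically from [gamma-33P]-ATP incorporation into substrate. The kinases were recombinant human GST- or His-tagged proteins, full-length or active fragments, expressed in Sf9 or E. coli. Compound in 10% DMSO was added before the enzyme/substrate mix, which started the reaction.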

[2] = target: T2, AuroraB (Homo sapiens, UniProt Q96GD4)
T2 construct: purchased ProQinase GmbH (Reaction Biology); host or cells: Sf9 insect cells or E. coli (not specified per kinase)
How it was run: as §1

[3] = target: T3, BRK (Homo sapiens, UniProt Q13882)
T3 construct: purchased ProQinase GmbH (Reaction Biology); host or cells: Sf9 insect cells or E. coli (not specified per kinase)
How it was run: as §1

[4] = target: T4, CAMK2A (Homo sapiens, UniProt Q9UQM7)
T4 construct: either as full-length or enzymatically active fragments; purchased ProQinase GmbH (Reaction Biology)
How it was run: as §1

[5] = target: T5, CDC42BPA (Homo sapiens, UniProt Q5VT25)
T5 construct: either as full-length or enzymatically active fragments; purchased ProQinase GmbH (Reaction Biology); host or cells: Sf9 insect cells or E. coli
How it was run: as §1

[6] = target: T6, CDK3/CycE1 (Homo sapiens, UniProt Q00526)
T6 construct: either as full-length or enzymatically active fragments; purchased ProQinase GmbH (Reaction Biology)
How it was run: as §1

[7] = target: T7, CDK6/CycD2 (Homo sapiens, UniProt Q00534)
T7 construct: either as full-length or enzymatically active fragments; purchased ProQinase GmbH (Reaction Biology)
How it was run: as §1

[8] = target: T8, CDK8/CycC (Homo sapiens, UniProt P49336)
T8 construct: either as full-length or enzymatically active fragments; purchased ProQinase GmbH (Reaction Biology)
How it was run: as §1

[9] = target: T9, CK1gamma1 (Homo sapiens, UniProt Q9HCP0)
T9 construct: either as full-length or enzymatically active fragments; purchased ProQinase GmbH (Reaction Biology)
How it was run: as §1

[10] = target: T10, CLK1 (Homo sapiens, UniProt P49759)
T10 construct: either as full-length or enzymatically active fragments; purchased ProQinase GmbH (Reaction Biology)
How it was run: as §1

[11] = target: T11, EPHA8 (Homo sapiens, UniProt P29322)
T11 construct: either as full-length or enzymatically active fragments; purchased ProQinase GmbH (Reaction Biology); host or cells: Sf9 insect cells or E. coli (not specified per kinase)
How it was run: as §1

[12] = target: T12, FYN (Homo sapiens, UniProt P06241)
T12 construct: purchased ProQinase GmbH (Reaction Biology)
How it was run: as §1

[13] = target: T13, GRK7 (Homo sapiens, UniProt Q8WTQ7)
T13 construct: either as full-length or enzymatically active fragments; purchased ProQinase GmbH (Reaction Biology)
How it was run: as §1

[14] = target: T14, GSG2 (Homo sapiens, UniProt Q8TF76)
T14 construct: either as full-length or enzymatically active fragments; purchased ProQinase GmbH (Reaction Biology); host or cells: Sf9 insect cells or E. coli
How it was run: as §1

[15] = target: T15, GSK3alpha (Homo sapiens, UniProt P49840)
T15 construct: either as full-length or enzymatically active fragments; purchased ProQinase GmbH (Reaction Biology)
How it was run: as §1

[16] = target: T16, INSR (Homo sapiens, UniProt P06213)
T16 construct: either as full-length or enzymatically active fragments; purchased ProQinase GmbH (Reaction Biology); host or cells: Sf9 insect cells or E. coli (not specified per kinase)
How it was run: as §1

[17] = target: T17, MET (Homo sapiens, UniProt P08581)
T17 construct: purchased ProQinase GmbH (Reaction Biology); host or cells: Sf9 insect cells or E. coli (not specified per kinase)
How it was run: as §1

[18] = target: T18, MKNK2 (Homo sapiens, UniProt Q9HBH9)
T18 construct: either as full-length or enzymatically active fragments; purchased ProQinase GmbH (Reaction Biology)
How it was run: as §1

[19] = target: T19, MST4 (Homo sapiens, UniProt Q9P289)
T19 construct: either as full-length or enzymatically active fragments; purchased ProQinase GmbH (Reaction Biology)
How it was run: as §1

[20] = target: T20, NEK6 (Homo sapiens, UniProt Q9HC98)
T20 construct: either as full-length or enzymatically active fragments; purchased ProQinase GmbH (Reaction Biology)
How it was run: as §1

[21] = target: T21, PBK (Homo sapiens, UniProt Q96KB5)
T21 construct: purchased ProQinase GmbH (Reaction Biology); host or cells: Sf9 insect cells or E. coli (not specified per kinase)
How it was run: as §1

[22] = target: T22, PHKG2 (Homo sapiens, UniProt P15735)
T22 construct: either as full-length or enzymatically active fragments; purchased ProQinase GmbH (Reaction Biology)
How it was run: as §1

[23] = target: T23, PKCmu (Homo sapiens, UniProt Q15139)
T23 construct: either as full-length or enzymatically active fragments; purchased ProQinase GmbH (Reaction Biology)
How it was run: as §1

[24] = target: T24, PKCnu (Homo sapiens, UniProt O94806)
T24 construct: either as full-length or enzymatically active fragments; purchased ProQinase GmbH (Reaction Biology)
How it was run: as §1

[25] = target: T25, ROS (Homo sapiens, UniProt P08922)
T25 construct: either as full-length or enzymatically active fragments; purchased ProQinase GmbH (Reaction Biology)
How it was run: as §1

[26] = target: T26, TGFBR2 (Homo sapiens, UniProt P37173)
T26 construct: either as full-length or enzymatically active fragments; purchased ProQinase GmbH (Reaction Biology)
How it was run: as §1

[27] = target: T27, TRKA (Homo sapiens, UniProt P04629)
T27 construct: either as full-length or enzymatically active fragments; purchased ProQinase GmbH (Reaction Biology)
How it was run: as §1

[28] = target: T28, TRKB (Homo sapiens, UniProt Q16620)
T28 construct: purchased ProQinase GmbH (Reaction Biology)
How it was run: as §1

[29] = target: T29, VRK2 (Homo sapiens, UniProt Q86Y07)
T29 construct: either as full-length or enzymatically active fragments; purchased ProQinase GmbH (Reaction Biology); host or cells: Sf9 insect cells or E. coli
How it was run: as §1

[30] = target: T30, WNK3 (Homo sapiens, UniProt Q9BYP7)
T30 construct: either as full-length or enzymatically active fragments; purchased ProQinase GmbH (Reaction Biology)
How it was run: as §1

[31] = target: T31, YES (Homo sapiens, UniProt P07947)
T31 construct: either as full-length or enzymatically active fragments; purchased ProQinase GmbH (Reaction Biology)
How it was run: as §1

T3 sequence (Q13882 whole entry): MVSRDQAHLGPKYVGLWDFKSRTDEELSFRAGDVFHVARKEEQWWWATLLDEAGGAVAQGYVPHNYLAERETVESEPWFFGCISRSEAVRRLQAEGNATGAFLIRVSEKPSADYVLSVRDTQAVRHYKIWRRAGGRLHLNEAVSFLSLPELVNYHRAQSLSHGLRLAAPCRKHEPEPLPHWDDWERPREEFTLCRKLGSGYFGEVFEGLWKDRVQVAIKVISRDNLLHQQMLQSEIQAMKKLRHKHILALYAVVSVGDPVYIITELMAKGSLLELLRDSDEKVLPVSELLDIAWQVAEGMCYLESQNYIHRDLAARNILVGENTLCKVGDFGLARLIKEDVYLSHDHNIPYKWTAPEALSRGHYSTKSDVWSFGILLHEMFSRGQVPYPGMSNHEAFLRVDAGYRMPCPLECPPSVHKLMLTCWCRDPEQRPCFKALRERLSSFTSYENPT
T26 sequence (P37173 23-567): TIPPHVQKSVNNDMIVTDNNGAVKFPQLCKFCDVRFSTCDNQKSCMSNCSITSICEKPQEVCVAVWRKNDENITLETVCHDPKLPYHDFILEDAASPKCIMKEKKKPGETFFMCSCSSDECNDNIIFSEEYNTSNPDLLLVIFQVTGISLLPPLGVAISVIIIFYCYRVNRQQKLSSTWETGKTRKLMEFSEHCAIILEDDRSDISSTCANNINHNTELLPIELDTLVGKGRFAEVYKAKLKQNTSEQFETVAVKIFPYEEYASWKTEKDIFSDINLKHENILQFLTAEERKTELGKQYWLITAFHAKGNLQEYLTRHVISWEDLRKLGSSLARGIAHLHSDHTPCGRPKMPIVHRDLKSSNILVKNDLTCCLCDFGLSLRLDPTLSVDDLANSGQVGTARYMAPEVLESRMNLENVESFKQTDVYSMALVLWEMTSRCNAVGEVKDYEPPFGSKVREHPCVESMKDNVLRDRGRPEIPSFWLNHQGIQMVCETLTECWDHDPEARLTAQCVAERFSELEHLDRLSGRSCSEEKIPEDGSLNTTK
T23 sequence (Q15139 whole entry, the tested form may be a part): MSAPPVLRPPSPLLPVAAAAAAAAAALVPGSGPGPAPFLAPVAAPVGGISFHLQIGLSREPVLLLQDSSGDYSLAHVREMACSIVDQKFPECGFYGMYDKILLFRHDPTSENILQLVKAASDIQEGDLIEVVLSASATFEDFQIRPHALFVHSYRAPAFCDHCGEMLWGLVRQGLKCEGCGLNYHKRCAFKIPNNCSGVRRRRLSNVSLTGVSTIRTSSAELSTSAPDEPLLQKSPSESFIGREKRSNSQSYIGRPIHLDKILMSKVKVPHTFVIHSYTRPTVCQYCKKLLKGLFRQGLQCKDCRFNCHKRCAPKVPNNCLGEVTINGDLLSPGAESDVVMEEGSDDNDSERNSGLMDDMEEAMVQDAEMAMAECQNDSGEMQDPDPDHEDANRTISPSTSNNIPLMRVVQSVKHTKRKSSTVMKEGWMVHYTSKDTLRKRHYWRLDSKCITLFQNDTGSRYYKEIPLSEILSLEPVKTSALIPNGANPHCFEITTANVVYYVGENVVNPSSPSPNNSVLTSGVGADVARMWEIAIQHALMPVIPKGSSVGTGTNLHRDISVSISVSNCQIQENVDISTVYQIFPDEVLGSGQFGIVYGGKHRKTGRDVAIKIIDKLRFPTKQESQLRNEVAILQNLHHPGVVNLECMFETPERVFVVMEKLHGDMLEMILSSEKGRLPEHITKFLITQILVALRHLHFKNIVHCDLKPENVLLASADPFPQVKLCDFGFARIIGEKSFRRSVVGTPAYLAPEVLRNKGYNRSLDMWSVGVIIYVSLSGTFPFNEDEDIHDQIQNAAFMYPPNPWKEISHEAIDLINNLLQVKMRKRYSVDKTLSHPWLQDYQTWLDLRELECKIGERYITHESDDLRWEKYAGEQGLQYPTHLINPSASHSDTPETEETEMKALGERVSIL
T20 sequence (Q9HC98 whole entry, the tested form may be a part): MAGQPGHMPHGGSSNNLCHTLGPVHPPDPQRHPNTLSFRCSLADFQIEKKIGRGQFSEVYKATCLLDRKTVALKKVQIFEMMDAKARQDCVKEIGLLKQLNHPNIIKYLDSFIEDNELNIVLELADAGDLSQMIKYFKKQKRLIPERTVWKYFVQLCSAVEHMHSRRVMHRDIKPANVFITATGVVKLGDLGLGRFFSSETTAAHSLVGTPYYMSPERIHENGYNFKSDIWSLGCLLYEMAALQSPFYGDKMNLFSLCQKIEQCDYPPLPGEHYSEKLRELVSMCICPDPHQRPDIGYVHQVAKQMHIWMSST
T22 sequence (P15735 whole entry, the tested form may be a part): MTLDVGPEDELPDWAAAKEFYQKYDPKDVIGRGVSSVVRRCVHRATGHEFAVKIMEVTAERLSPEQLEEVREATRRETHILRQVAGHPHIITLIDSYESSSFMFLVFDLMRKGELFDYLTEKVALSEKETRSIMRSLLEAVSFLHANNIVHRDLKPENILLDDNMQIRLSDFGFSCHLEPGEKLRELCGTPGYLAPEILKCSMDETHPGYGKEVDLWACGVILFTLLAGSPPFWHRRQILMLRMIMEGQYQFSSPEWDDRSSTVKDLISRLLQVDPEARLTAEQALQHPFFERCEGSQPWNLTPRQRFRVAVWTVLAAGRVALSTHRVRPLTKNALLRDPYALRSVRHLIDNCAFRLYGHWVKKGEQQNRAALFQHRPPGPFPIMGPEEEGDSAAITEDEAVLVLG
T31 sequence (P07947 whole entry, the tested form may be a part): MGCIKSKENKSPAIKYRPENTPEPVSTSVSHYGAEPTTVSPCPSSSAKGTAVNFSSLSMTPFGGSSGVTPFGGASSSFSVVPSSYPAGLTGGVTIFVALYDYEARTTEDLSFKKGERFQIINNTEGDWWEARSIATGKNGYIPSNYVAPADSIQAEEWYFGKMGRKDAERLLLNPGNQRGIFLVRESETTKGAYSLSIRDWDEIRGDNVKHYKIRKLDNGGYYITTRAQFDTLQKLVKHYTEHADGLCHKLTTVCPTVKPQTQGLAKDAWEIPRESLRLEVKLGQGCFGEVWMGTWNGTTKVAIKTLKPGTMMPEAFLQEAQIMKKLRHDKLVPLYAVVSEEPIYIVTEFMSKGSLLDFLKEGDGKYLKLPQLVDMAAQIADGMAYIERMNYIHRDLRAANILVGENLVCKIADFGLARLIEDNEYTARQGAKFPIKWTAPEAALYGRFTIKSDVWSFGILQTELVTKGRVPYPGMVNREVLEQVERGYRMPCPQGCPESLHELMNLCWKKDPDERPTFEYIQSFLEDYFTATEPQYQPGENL
T24 sequence (O94806 whole entry, the tested form may be a part): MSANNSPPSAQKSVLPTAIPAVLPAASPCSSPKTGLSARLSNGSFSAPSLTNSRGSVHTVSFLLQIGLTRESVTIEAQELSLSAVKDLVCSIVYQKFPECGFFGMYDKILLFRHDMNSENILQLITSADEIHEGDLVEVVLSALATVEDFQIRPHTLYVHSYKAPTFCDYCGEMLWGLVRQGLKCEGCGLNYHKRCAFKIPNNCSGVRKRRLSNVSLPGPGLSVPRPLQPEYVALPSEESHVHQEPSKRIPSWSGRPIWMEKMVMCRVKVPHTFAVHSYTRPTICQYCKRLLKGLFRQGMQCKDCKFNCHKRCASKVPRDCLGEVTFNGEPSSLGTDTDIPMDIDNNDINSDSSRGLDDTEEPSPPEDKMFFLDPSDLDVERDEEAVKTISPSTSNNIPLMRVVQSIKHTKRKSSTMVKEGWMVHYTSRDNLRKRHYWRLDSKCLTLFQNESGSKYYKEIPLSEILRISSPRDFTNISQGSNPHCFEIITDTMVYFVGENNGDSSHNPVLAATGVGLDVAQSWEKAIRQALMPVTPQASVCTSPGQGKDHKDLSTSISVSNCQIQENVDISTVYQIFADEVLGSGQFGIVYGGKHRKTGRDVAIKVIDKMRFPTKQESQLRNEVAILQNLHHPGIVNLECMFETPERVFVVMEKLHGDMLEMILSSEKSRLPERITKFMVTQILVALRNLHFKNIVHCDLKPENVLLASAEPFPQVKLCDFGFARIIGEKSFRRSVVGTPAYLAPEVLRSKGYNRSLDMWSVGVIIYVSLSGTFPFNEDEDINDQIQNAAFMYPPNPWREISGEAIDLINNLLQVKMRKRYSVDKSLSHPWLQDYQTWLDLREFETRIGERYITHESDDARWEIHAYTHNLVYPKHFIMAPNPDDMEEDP
T10 sequence (P49759 whole entry, the tested form may be a part): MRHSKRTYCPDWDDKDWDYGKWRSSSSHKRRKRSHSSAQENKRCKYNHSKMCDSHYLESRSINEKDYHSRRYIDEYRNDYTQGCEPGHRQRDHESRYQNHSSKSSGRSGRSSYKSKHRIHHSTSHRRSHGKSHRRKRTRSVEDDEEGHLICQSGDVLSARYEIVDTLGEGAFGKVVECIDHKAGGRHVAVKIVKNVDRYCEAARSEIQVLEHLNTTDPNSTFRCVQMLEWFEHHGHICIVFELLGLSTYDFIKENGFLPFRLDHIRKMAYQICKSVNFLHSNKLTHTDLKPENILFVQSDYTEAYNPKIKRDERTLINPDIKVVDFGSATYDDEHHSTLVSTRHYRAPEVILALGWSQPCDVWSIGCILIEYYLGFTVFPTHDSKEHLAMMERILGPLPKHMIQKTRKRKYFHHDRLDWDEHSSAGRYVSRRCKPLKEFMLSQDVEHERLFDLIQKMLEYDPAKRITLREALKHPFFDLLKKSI
T2 sequence (Q96GD4 whole entry): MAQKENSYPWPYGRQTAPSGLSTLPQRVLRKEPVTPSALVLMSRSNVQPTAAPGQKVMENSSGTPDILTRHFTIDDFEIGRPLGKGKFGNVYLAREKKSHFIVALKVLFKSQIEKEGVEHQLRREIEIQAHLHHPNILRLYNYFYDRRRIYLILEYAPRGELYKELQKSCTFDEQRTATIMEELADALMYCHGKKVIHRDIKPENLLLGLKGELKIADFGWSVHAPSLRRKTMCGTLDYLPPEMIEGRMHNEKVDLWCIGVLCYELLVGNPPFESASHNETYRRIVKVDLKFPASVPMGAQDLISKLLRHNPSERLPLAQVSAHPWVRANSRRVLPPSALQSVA

C=CC(=O)Nc1ccc(C(=O)N2CC[C@@H](Nc3ncc(C#N)cn3)C2)cc1 [Compound 4, (R)-N-(4-(3-((5-cyanopyrimidin-2-yl)amino)pyrrolidine-1-carbonyl)phenyl)acrylamide]
inhibition at 1 µM [1]: 2%
inhibition at 1 µM [2]: 1%
inhibition at 1 µM [3]: 1%
inhibition at 1 µM [4]: -9%
inhibition at 1 µM [5]: -16%
inhibition at 1 µM [6]: 25%
inhibition at 1 µM [7]: -14%
inhibition at 1 µM [8]: 3%
inhibition at 1 µM [9]: -11%
inhibition at 1 µM [10]: -3%
inhibition at 1 µM [11]: 9%
inhibition at 1 µM [12]: -2%
inhibition at 1 µM [13]: -5%
inhibition at 1 µM [14]: 13%
inhibition at 1 µM [15]: 6%
inhibition at 1 µM [16]: 8%
inhibition at 1 µM [17]: 0%
inhibition at 1 µM [18]: 4%
inhibition at 1 µM [19]: 6%
inhibition at 1 µM [20]: 4%
inhibition at 1 µM [21]: 0%
inhibition at 1 µM [22]: 2%
inhibition at 1 µM [23]: 3%
inhibition at 1 µM [24]: 4%
inhibition at 1 µM [25]: 2%
inhibition at 1 µM [26]: 22%
inhibition at 1 µM [27]: -7%
inhibition at 1 µM [28]: -1%
inhibition at 1 µM [29]: -16%
inhibition at 1 µM [30]: -6%
inhibition at 1 µM [31]: -5%
